In the NIST ThermoML archive (doi:10.1021/je050056e):
Numbers after ± are expanded uncertainties.

Details: Liquid; for mass density: 101.33 kPa

FC(F)(F)C(F)(F)C(F)(F)C(F)(F)C(F)(F)C(F)(F)C(F)(F)C(F)(F)Br [1-bromoperfluorooctane]
mass density (288.15 K): 1938.6 ± 1.9 kg/m3
vapor or sublimation pressure (288.22 K): 0.38 ± 0.02 kPa
mass density (293.15 K): 1926.7 ± 1.9 kg/m3
vapor or sublimation pressure (293.2 K): 0.54 ± 0.03 kPa
vapor or sublimation pressure (298.08 K): 0.69 ± 0.04 kPa
mass density (298.15 K): 1914.8 ± 1.9 kg/m3
mass density (303.15 K): 1902.8 ± 1.9 kg/m3
vapor or sublimation pressure (303.26 K): 0.98 ± 0.05 kPa
mass density (308.15 K): 1890.8 ± 1.8 kg/m3
vapor or sublimation pressure (308.22 K): 1.3 ± 0.06 kPa
mass density (313.15 K): 1878.6 ± 1.8 kg/m3
vapor or sublimation pressure (313.18 K): 1.67 ± 0.06 kPa
vapor or sublimation pressure (318.09 K): 2.24 ± 0.07 kPa
vapor or sublimation pressure (322.92 K): 2.89 ± 0.08 kPa
vapor or sublimation pressure (327.88 K): 3.69 ± 0.08 kPa
vapor or sublimation pressure (332.78 K): 4.7 ± 0.09 kPa

FC(F)C(F)(F)C(F)(F)C(F)(F)C(F)(F)C(F)(F)C(F)(F)C(F)(F)F [1H-perfluorooctane]
mass density (288.15 K): 1773.6 ± 1.6 kg/m3
vapor or sublimation pressure (288.35 K): 1.18 ± 0.06 kPa
mass density (293.15 K): 1761.8 ± 1.6 kg/m3
vapor or sublimation pressure (293.26 K): 1.6 ± 0.06 kPa
mass density (298.15 K): 1749.9 ± 1.6 kg/m3
vapor or sublimation pressure (298.26 K): 2.18 ± 0.07 kPa
mass density (303.15 K): 1737.9 ± 1.6 kg/m3
vapor or sublimation pressure (303.19 K): 2.84 ± 0.07 kPa
mass density (308.15 K): 1725.8 ± 1.6 kg/m3
vapor or sublimation pressure (308.15 K): 3.72 ± 0.08 kPa
vapor or sublimation pressure (313.13 K): 4.87 ± 0.1 kPa
mass density (313.15 K): 1713.6 ± 1.6 kg/m3
vapor or sublimation pressure (318.06 K): 6.22 ± 0.11 kPa
vapor or sublimation pressure (323.01 K): 8.07 ± 0.13 kPa
vapor or sublimation pressure (328 K): 10.25 ± 0.15 kPa
vapor or sublimation pressure (332.89 K): 12.83 ± 0.17 kPa

FC(F)(F)C(F)(F)C(F)(F)C(F)(F)C(F)(F)C(F)(F)C(F)(F)C(F)(F)C(F)(F)F [eicosafluorononane]
mass density (288.15 K): 1812.2 ± 1.7 kg/m3
vapor or sublimation pressure (288.18 K): 0.68 ± 0.04 kPa
mass density (293.15 K): 1800.1 ± 1.7 kg/m3
vapor or sublimation pressure (293.18 K): 0.94 ± 0.05 kPa
vapor or sublimation pressure (298.11 K): 1.29 ± 0.07 kPa
mass density (298.15 K): 1787.9 ± 1.7 kg/m3
vapor or sublimation pressure (303.1 K): 1.71 ± 0.06 kPa
mass density (303.15 K): 1775.7 ± 1.7 kg/m3
vapor or sublimation pressure (308.19 K): 2.32 ± 0.07 kPa
mass density (313.15 K): 1750.9 ± 1.6 kg/m3
vapor or sublimation pressure (313.17 K): 3.06 ± 0.08 kPa
vapor or sublimation pressure (318.22 K): 3.99 ± 0.09 kPa
vapor or sublimation pressure (323.15 K): 5.14 ± 0.1 kPa
vapor or sublimation pressure (328.15 K): 6.59 ± 0.11 kPa
vapor or sublimation pressure (333.15 K): 8.42 ± 0.13 kPa

Fc1c(F)c(F)c(F)c(F)c1F [hexafluorobenzene]
mass density (288.15 K): 1628.9 ± 1.4 kg/m3
vapor or sublimation pressure (288.23 K): 6.9 ± 0.12 kPa
mass density (293.15 K): 1617.5 ± 1.4 kg/m3
vapor or sublimation pressure (293.51 K): 9 ± 0.14 kPa
vapor or sublimation pressure (297.98 K): 11.16 ± 0.16 kPa
mass density (298.15 K): 1606.2 ± 1.4 kg/m3
vapor or sublimation pressure (302.96 K): 14.2 ± 0.19 kPa
mass density (303.15 K): 1594.8 ± 1.4 kg/m3
vapor or sublimation pressure (307.96 K): 17.93 ± 0.23 kPa
mass density (308.15 K): 1583.3 ± 1.3 kg/m3
vapor or sublimation pressure (312.96 K): 22.25 ± 0.27 kPa
mass density (313.15 K): 1571.8 ± 1.3 kg/m3
vapor or sublimation pressure (317.96 K): 27.56 ± 0.33 kPa
vapor or sublimation pressure (322.96 K): 33.85 ± 0.39 kPa
vapor or sublimation pressure (327.95 K): 41.16 ± 0.46 kPa
vapor or sublimation pressure (333.01 K): 49.95 ± 0.54 kPa

Fc1c(F)c(F)c(C(F)(F)F)c(F)c1F [octafluorotoluene]
mass density (288.15 K): 1682.8 ± 1.5 kg/m3
vapor or sublimation pressure (288.23 K): 2.18 ± 0.07 kPa
mass density (293.15 K): 1672.2 ± 1.5 kg/m3
vapor or sublimation pressure (293.2 K): 2.95 ± 0.08 kPa
mass density (298.15 K): 1661.6 ± 1.5 kg/m3
vapor or sublimation pressure (298.28 K): 3.87 ± 0.09 kPa
mass density (303.15 K): 1650.9 ± 1.4 kg/m3
vapor or sublimation pressure (303.18 K): 5.09 ± 0.1 kPa
mass density (308.15 K): 1640.2 ± 1.4 kg/m3
vapor or sublimation pressure (308.15 K): 6.54 ± 0.11 kPa
mass density (313.15 K): 1629.4 ± 1.4 kg/m3
vapor or sublimation pressure (313.15 K): 8.43 ± 0.13 kPa
vapor or sublimation pressure (318.15 K): 10.69 ± 0.15 kPa
vapor or sublimation pressure (323.15 K): 13.38 ± 0.18 kPa
vapor or sublimation pressure (328.45 K): 16.86 ± 0.22 kPa
vapor or sublimation pressure (333.93 K): 21.31 ± 0.26 kPa

FC1(F)C(F)(F)C(F)(F)C2(F)C(F)(F)C(F)(F)C(F)(F)C(F)(F)C2(F)C1(F)F (centres undefined) [perfluorodecalin]
mass density (288.15 K): 1952.8 ± 1.9 kg/m3
vapor or sublimation pressure (288.25 K): 0.57 ± 0.03 kPa
mass density (293.15 K): 1941.7 ± 1.9 kg/m3
vapor or sublimation pressure (293.25 K): 0.73 ± 0.04 kPa
mass density (298.15 K): 1930.5 ± 1.9 kg/m3
vapor or sublimation pressure (298.21 K): 0.91 ± 0.05 kPa
mass density (303.15 K): 1919.2 ± 1.9 kg/m3
vapor or sublimation pressure (303.29 K): 1.25 ± 0.06 kPa
vapor or sublimation pressure (308.23 K): 1.59 ± 0.06 kPa
mass density (313.15 K): 1896.6 ± 1.8 kg/m3
vapor or sublimation pressure (313.22 K): 2.05 ± 0.07 kPa
vapor or sublimation pressure (318.21 K): 2.66 ± 0.07 kPa
vapor or sublimation pressure (323.18 K): 3.45 ± 0.08 kPa
vapor or sublimation pressure (328.17 K): 4.41 ± 0.09 kPa
vapor or sublimation pressure (333.2 K): 5.47 ± 0.1 kPa

FC(F)(F)C(F)(F)C(F)(F)C(F)(F)C(F)(F)C(F)(F)F [perfluorohexane]
mass density (288.15 K): 1705.6 ± 1.5 kg/m3
vapor or sublimation pressure (288.31 K): 18.78 ± 2 kPa
mass density (293.15 K): 1691 ± 1.5 kg/m3
vapor or sublimation pressure (293.22 K): 23.58 ± 2 kPa
vapor or sublimation pressure (298.09 K): 29.28 ± 2 kPa
mass density (298.15 K): 1676.1 ± 1.5 kg/m3
vapor or sublimation pressure (302.98 K): 36.19 ± 2 kPa
mass density (303.15 K): 1661.1 ± 1.5 kg/m3
vapor or sublimation pressure (307.97 K): 44.38 ± 2 kPa
mass density (313.15 K): 1630.2 ± 1.4 kg/m3
vapor or sublimation pressure (313.17 K): 54.56 ± 2.1 kPa
vapor or sublimation pressure (318.15 K): 65.86 ± 2.1 kPa
vapor or sublimation pressure (323.13 K): 78.91 ± 2.1 kPa
vapor or sublimation pressure (328.11 K): 94.08 ± 2.2 kPa
vapor or sublimation pressure (333.1 K): 111.39 ± 2.2 kPa
